Measurements taken from ChEMBL document CHEMBL4304757, “Synthetic heterocyclic candidates as promising α-glucosidase inhibitors: An overview” (Eur J Med Chem, 2019).

biological target: T1, Alpha glucosidase (Homo sapiens, UniProt O43451+P10253+P14410+Q2M2H8); assay: Inhibition of alpha-glucosidase (unknown origin); assay type: protein assay

IC50 | Structure (SMILES)
2.2 to 83 µM | O=C(Cc1ccc(Cl)c(Cl)c1)N/N=C1\C(=O)Nc2cc(Br)ccc21
20 to 292 µM | Cc1c(C(c2ccc(-c3nnc(-c4c[nH]c5ccccc45)o3)cc2)c2c(C)n(C)c3ccccc23)c2ccccc2n1C
20 to 292 µM | Cn1cc(-c2nnc(-c3ccc(C(c4c(-c5ccccc5)[nH]c5ccccc45)c4c(-c5ccccc5)[nH]c5ccccc45)cc3)o2)c2ccccc21
15 to 48 µM | CCOc1ccccc1NC(=O)Cn1cc(Cn2c(-c3ccccc3F)nc(-c3ccccc3)c2-c2ccccc2)nn1
4.3 µM | O=C(C[C@@H](c1c(Cl)cccc1Cl)c1c[nH]c2ccccc12)c1ccccc1

biological target: T1, Alpha glucosidase; assay: Inhibition of alpha-glucosidase (unknown origin) using p-nitrophenyl-alpha-d-glucopyranoside as substrate preincubated for 15 mins followed by substrate addition measured after 30 mins; assay type: protein assay

Structure (SMILES) | IC50
Cc1ccc(C(c2c[nH]c3ccc(C(=O)NNS(=O)(=O)c4cc(Cl)ccc4Cl)cc23)c2c[nH]c3ccc(C(=O)NNS(=O)(=O)c4cc(Cl)ccc4Cl)cc23)cc1 | 0.1 to 5.1 µM
COc1cc(Br)ccc1O[C@H](C)Cn1cc(-c2ccc(F)cc2)nn1 | 14 to 218 µM
O=C(CSc1nnc(-c2ccc(F)cc2)c(-c2ccc(F)cc2)n1)Nc1nc(-c2ccc(Br)cc2)cs1 | 2.8 to 14 µM
COc1cc(Br)ccc1O[C@H](C)Cn1cc(-c2ccc(C(F)(F)F)cc2)nn1 | 14 to 218 µM
O=C(CSc1nnc(-c2ccc(Br)cc2)c(-c2ccc(Br)cc2)n1)Nc1nc(-c2ccc(F)cc2)cs1 | 2.8 to 14 µM
O=C(CSc1nnc(-c2ccc(Br)cc2)c(-c2ccc(Br)cc2)n1)Nc1nc(-c2ccc(Cl)cc2)cs1 | 2.8 to 14 µM
Cc1ccc(-c2csc(NC(=O)CSc3nnc(-c4ccc(F)cc4)c(-c4ccc(F)cc4)n3)n2)cc1 | 2.8 to 14 µM
O=c1ccc2ccc(OCC(O)CSc3nnc(-c4ccc(F)cc4)c(-c4ccc(F)cc4)n3)cc2o1 (stereo not given) | 32 to 148 µM
COc1cc(-c2ccc([N+](=O)[O-])cc2)ccc1O[C@H](C)Cn1cc(-c2ccc(C(F)(F)F)cc2)nn1 | 14 to 218 µM
Cc1ccc2c(c1)/C(=N/Nc1nc(-c3ccc(O)cc3)cs1)C(=O)N2 | 5.3 to 35 µM
COc1ccc(-c2ccc(O[C@H](C)Cn3cc(-c4ccc(C(F)(F)F)cc4)nn3)c(OC)c2)cc1 | 14 µM
O=c1oc2ccccc2cc1OCC(O)CSc1nnc(-c2cccc(Br)c2)c(-c2cccc(Br)c2)n1 (stereo not given) | 32 µM
COc1ccc(-c2csc(NC(=O)CSc3nnc(-c4ccc(Br)cc4)c(-c4ccc(Br)cc4)n3)n2)cc1 | 2.8 µM
O=C(CSc1nnc(-c2ccc(F)cc2)c(-c2ccc(F)cc2)n1)Nc1nc(-c2ccccc2)cs1 | 2.8 to 14 µM
COc1cc(-c2ccc(C)cc2)ccc1O[C@H](C)Cn1cc(-c2ccc(C(F)(F)F)cc2)nn1 | 14 to 218 µM
CN1C(=O)/C(=N\Nc2nc(-c3ccc(F)cc3)cs2)c2ccccc21 | 5.3 to 35 µM
COc1ccc(-c2csc(N/N=C3\C(=O)N(C)c4ccccc43)n2)cc1 | 5.3 to 35 µM
COc1ccc(-c2csc(N/N=C3\C(=O)N(Cc4ccccc4F)c4ccc(C)cc43)n2)cc1 | 5.3 to 35 µM
Cc1ccc(C(c2c[nH]c3ccc(C(=O)NNS(=O)(=O)c4cc(Cl)c(Cl)cc4Cl)cc23)c2c[nH]c3ccc(C(=O)NNS(=O)(=O)c4cc(Cl)c(Cl)cc4Cl)cc23)cc1 | 0.3 to 2.5 µM
Cc1ccc(-c2csc(N/N=C3\C(=O)N(Cc4ccccc4F)c4ccc(C)cc43)n2)cc1 | 5.3 to 35 µM
O=C(CSc1nnc(-c2ccc(Br)cc2)c(-c2ccc(Br)cc2)n1)Nc1nc(-c2ccc(Br)cc2)cs1 | 2.8 to 14 µM
O=C1Nc2ccc(Cl)cc2/C1=N/Nc1nc(-c2ccc(Br)cc2)cs1 | 5.3 to 35 µM
Cc1ccc(C(c2c[nH]c3ccc(C(=O)NNS(=O)(=O)c4ccc(Cl)c(Cl)c4)cc23)c2c[nH]c3ccc(C(=O)NNS(=O)(=O)c4ccc(Cl)c(Cl)c4)cc23)cc1 | 0.1 to 5.1 µM
Cc1ccc(C(c2c[nH]c3ccc(C(=O)NNS(=O)(=O)c4cc(Cl)cc(Cl)c4)cc23)c2c[nH]c3ccc(C(=O)NNS(=O)(=O)c4cc(Cl)cc(Cl)c4)cc23)cc1 | 0.1 to 5.1 µM
Cc1ccc(C(c2c[nH]c3ccc(C(=O)NNS(=O)(=O)c4ccc(Br)cc4)cc23)c2c[nH]c3ccc(C(=O)NNS(=O)(=O)c4ccc(Br)cc4)cc23)cc1 | 0.1 to 5.1 µM
Cc1ccc(-c2csc(N/N=C3\C(=O)Nc4c(C)cc(C)cc43)n2)cc1 | 5.3 to 35 µM

Structure (SMILES) | IC50
Cc1ccc(C(c2c[nH]c3ccc(C(=O)NNS(=O)(=O)c4ccc([N+](=O)[O-])cc4)cc23)c2c[nH]c3ccc(C(=O)NNS(=O)(=O)c4ccc([N+](=O)[O-])cc4)cc23)cc1 | 2.1 µM
O=C(CSc1nnc(-c2ccccc2)c(-c2ccccc2)n1)Nc1nc(-c2ccccc2)cs1 | 2.8 to 14 µM
Cc1ccc(-c2csc(N/N=C3\C(=O)Nc4ccc(F)cc43)n2)cc1 | 5.3 to 35 µM
O=c1oc2ccccc2cc1OCC(O)CSc1nnc(-c2ccco2)c(-c2ccco2)n1 (stereo not given) | 32 to 148 µM
O=c1ccc2ccc(OCC(O)CSc3nnc(-c4ccco4)c(-c4ccco4)n3)cc2o1 (stereo not given) | 32 to 148 µM
O=C1Nc2ccccc2/C1=N/Nc1nc(-c2ccc(F)cc2)cs1 | 5.3 to 35 µM
COc1cc(-c2ccc(F)cc2)ccc1O[C@H](C)Cn1cc(-c2ccc(C(F)(F)F)cc2)nn1 | 14 to 218 µM
Cc1ccc(-c2csc(N/N=C3\C(=O)N(C)c4ccccc43)n2)cc1 | 5.3 to 35 µM
Cc1cc(C)c2c(c1)/C(=N/Nc1nc(-c3ccc(F)cc3)cs1)C(=O)N2 | 5.3 to 35 µM
COc1cc(Br)ccc1O[C@H](C)Cn1cc(-c2ccccc2)nn1 | 14 to 218 µM
Cc1ccc(-c2csc(N/N=C3\C(=O)Nc4ccccc43)n2)cc1 | 5.3 to 35 µM
Cc1ccc2c(c1)/C(=N/Nc1nc(-c3ccc(O)cc3)cs1)C(=O)N2Cc1ccccc1F | 5.3 µM
O=C(CSc1nnc(-c2ccc(F)cc2)c(-c2ccc(F)cc2)n1)Nc1nc(-c2ccc(F)cc2)cs1 | 2.8 to 14 µM
COC(=O)c1cn(C[C@@H](C)Oc2ccc(Br)cc2OC)nn1 | 14 to 218 µM
O=c1oc2ccccc2cc1OCC(O)CSc1nnc(-c2ccc(F)cc2)c(-c2ccc(F)cc2)n1 (stereo not given) | 32 to 148 µM
O=C1Nc2ccccc2/C1=N/Nc1nc(-c2ccc(Cl)cc2)cs1 | 5.3 to 35 µM
Cc1ccc(C(c2c[nH]c3ccc(C(=O)NNS(=O)(=O)c4cccc([N+](=O)[O-])c4)cc23)c2c[nH]c3ccc(C(=O)NNS(=O)(=O)c4cccc([N+](=O)[O-])c4)cc23)cc1 | 2.1 µM
O=C1Nc2ccc(F)cc2/C1=N/Nc1nc(-c2ccc(F)cc2)cs1 | 5.3 to 35 µM
Cc1ccc(-c2csc(NC(=O)CSc3nnc(-c4ccc(Br)cc4)c(-c4ccc(Br)cc4)n3)n2)cc1 | 2.8 to 14 µM
O=C(CSc1nnc(-c2ccc(F)cc2)c(-c2ccc(F)cc2)n1)Nc1nc(-c2ccc(Cl)cc2)cs1 | 2.8 to 14 µM
Cc1ccc(C(c2c[nH]c3ccc(C(=O)NNS(=O)(=O)c4ccc(Cl)cc4Cl)cc23)c2c[nH]c3ccc(C(=O)NNS(=O)(=O)c4ccc(Cl)cc4Cl)cc23)cc1 | 0.1 to 5.1 µM
O=c1ccc2ccc(OCC(O)CSc3nnc(-c4cccc(F)c4)c(-c4cccc(F)c4)n3)cc2o1 (stereo not given) | 32 to 148 µM
Cc1ccc(C(c2c[nH]c3ccc(C(=O)NNS(=O)(=O)c4ccc([N+](=O)[O-])cc4[N+](=O)[O-])cc23)c2c[nH]c3ccc(C(=O)NNS(=O)(=O)c4ccc([N+](=O)[O-])cc4[N+](=O)[O-])cc23)cc1 | 0.5 µM
Cc1cc(C)c2c(c1)/C(=N/Nc1nc(-c3ccc(Br)cc3)cs1)C(=O)N2 | 5.3 to 35 µM
O=C(CSc1nnc(-c2ccc(Br)cc2)c(-c2ccc(Br)cc2)n1)Nc1nc(-c2ccccc2)cs1 | 2.8 to 14 µM

The remaining lines, values ahead:

IC50 | Structure (SMILES)
2.8 to 14 µM | Cc1ccc(-c2csc(NC(=O)CSc3nnc(-c4ccccc4)c(-c4ccccc4)n3)n2)cc1
0.1 to 5.1 µM | Cc1ccc(C(c2c[nH]c3ccc(C(=O)NNS(=O)(=O)c4ccc(C)cc4)cc23)c2c[nH]c3ccc(C(=O)NNS(=O)(=O)c4ccc(C)cc4)cc23)cc1
5.9 to 145 µM | CC(C)n1cc(C2(c3cn(C(C)C)c4ccccc34)C(=O)Nc3ccccc32)c2ccccc21
5.9 to 145 µM | O=C1Nc2ccccc2C1(c1cn(Cc2cccc(F)c2)c2ccccc12)c1cn(Cc2cccc(F)c2)c2ccccc12
5.9 to 145 µM | O=C1Nc2ccccc2C1(c1c[nH]c2ccccc12)c1c[nH]c2ccccc12
2.8 to 14 µM | O=C(CSc1nnc(-c2ccccc2)c(-c2ccccc2)n1)Nc1nc(-c2ccc(F)cc2)cs1
32 to 148 µM | O=c1ccc2ccc(OCC(O)CSc3nnc(-c4ccccc4)c(-c4ccccc4)n3)cc2o1 (stereo not given)
0.1 to 5.1 µM | Cc1ccc(C(c2c[nH]c3ccc(C(=O)NNS(=O)(=O)c4ccccc4Cl)cc23)c2c[nH]c3ccc(C(=O)NNS(=O)(=O)c4ccccc4Cl)cc23)cc1
2.8 to 14 µM | O=C(CSc1nnc(-c2ccccc2)c(-c2ccccc2)n1)Nc1nc(-c2ccc(Cl)cc2)cs1
5.9 to 145 µM | O=C1Nc2ccc(Br)cc2C1(c1c[nH]c2ccccc12)c1c[nH]c2ccccc12
5.9 to 145 µM | CCCn1cc(C2(c3cn(CCC)c4ccccc34)C(=O)Nc3ccccc32)c2ccccc21
5.9 to 145 µM | O=C1Nc2ccccc2C1(c1cn(Cc2ccccc2Cl)c2ccccc12)c1cn(Cc2ccccc2Cl)c2ccccc12
2.8 to 14 µM | O=C(CSc1nnc(-c2ccccc2)c(-c2ccccc2)n1)Nc1nc(-c2ccc(Br)cc2)cs1
2.8 to 14 µM | COc1ccc(-c2csc(NC(=O)CSc3nnc(-c4ccccc4)c(-c4ccccc4)n3)n2)cc1
5.9 to 145 µM | O=C1Nc2ccccc2C1(c1cn(Cc2ccc(Br)cc2)c2ccccc12)c1cn(Cc2ccc(Br)cc2)c2ccccc12
5.9 to 145 µM | O=C1Nc2ccccc2C1(c1cn(Cc2ccccc2)c2ccccc12)c1cn(Cc2ccccc2)c2ccccc12
5.9 to 145 µM | CC(C)Cn1cc(C2(c3cn(CC(C)C)c4ccccc34)C(=O)Nc3ccccc32)c2ccccc21
5.9 to 145 µM | Cc1ccc2c(c1)C(c1c[nH]c3ccccc13)(c1c[nH]c3ccccc13)C(=O)N2
2.1 µM | Cc1ccc(C(c2c[nH]c3ccc(C(=O)NNS(=O)(=O)c4ccccc4[N+](=O)[O-])cc23)c2c[nH]c3ccc(C(=O)NNS(=O)(=O)c4ccccc4[N+](=O)[O-])cc23)cc1
0.1 to 5.1 µM | Cc1ccc(C(c2c[nH]c3ccc(C(=O)NNS(=O)(=O)c4cccc(Cl)c4Cl)cc23)c2c[nH]c3ccc(C(=O)NNS(=O)(=O)c4cccc(Cl)c4Cl)cc23)cc1
0.1 to 5.1 µM | Cc1ccc(C(c2c[nH]c3ccc(C(=O)NNS(=O)(=O)c4ccccc4Br)cc23)c2c[nH]c3ccc(C(=O)NNS(=O)(=O)c4ccccc4Br)cc23)cc1
5.9 to 145 µM | CCCCn1cc(C2(c3cn(CCCC)c4ccccc34)C(=O)Nc3ccccc32)c2ccccc21
5.9 to 145 µM | Cn1cc(C2(c3cn(C)c4ccccc34)C(=O)Nc3ccccc32)c2ccccc21
5.9 µM | O=C1Nc2ccccc2C1(c1cn(Cc2ccccc2F)c2ccccc12)c1cn(Cc2ccccc2F)c2ccccc12
